The text below walks through data of patent US20090156577A1, “7-AMINO ALKYLIDENYL-HETEROCYCLIC QUINOLONES AND NAPHTHYRIDONES” (priority 2004, published 2009).

The subject of this test is pathogenic bacteria. The experiment in a line: MIC by microdilution broth method (NCCLS M7-A4), in vitro antibacterial activity. Format: cell-based. Summed up: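 Broth microdilution per NCCLS M7-A4: two-fold serial dilutions in cation-adjusted Mueller-Hinton broth, inoculum about 5×10^4 CFU/well. Trays incubated 16–20 h at 35 °C. MIC read by comparing growth against no-compound growth controls.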
(Dilution methods test growth across graded concentrations, often in twofold steps.)

Where [1] appears, read: Staphylococcus aureus, Organism A: Staphylococcus aureus OC4172, read-out: MIC.
The mark [2] stands for this setting: Streptococcus pneumoniae, ATCC49619, Organism E: Streptococcus pneumoniae ATCC 49619, read-out: MIC.
Where [3] appears, read: Streptococcus pneumoniae, Organism B: fluoroquinolone-resistant clinical isolate of Streptococcus pneumoniae (QRDR amino acid substitutions).
Setting [4] is: Streptococcus pneumoniae, Organism C: fluoroquinolone-resistant clinical isolate of Streptococcus pneumoniae (QRDR amino acid substitutions).
[5] abbreviates: Streptococcus pneumoniae, Organism D: fluoroquinolone-resistant clinical isolate of Streptococcus pneumoniae (QRDR amino acid substitutions).
Setting [6] is: Organism A: Staphylococcus aureus OC4172.
The mark [7] stands for this setting: Organism C: fluoroquinolone-resistant clinical isolate of Streptococcus pneumoniae (QRDR amino acid substitutions).
The mark [8] stands for this setting: Organism E: Streptococcus pneumoniae ATCC 49619.
Where [9] appears, read: Organism B: fluoroquinolone-resistant clinical isolate of Streptococcus pneumoniae (QRDR amino acid substitutions).
Setting [10] is: Organism D: fluoroquinolone-resistant clinical isolate of Streptococcus pneumoniae (QRDR amino acid substitutions).

Usually MIC stands for the lowest concentration found to suppress growth.

In brackets after ≈: the same amount, converted by molar mass. Where two headings read alike, the source gives them in different places. Bounds are passed on as bounds.

As to `C=C(C)CC(CN)=C1CCN(c2c(F)cc3c(=O)c(C(=O)O)cn(C4CC4)c3c2OC)CC1` [Compound 202, 7-[4-(1-Aminomethyl-3-methyl-but-3-enylidene)-piperidin-1-yl]-1-cyclopropyl-6-fluoro-8-methoxy-4-oxo-1,4-dihydro-quinoline-3-carboxylic acid], the MIC worked out at 0.5 µg/mL (≈ 1.1 µM) under setting [1]; 2 µg/mL (≈ 4.39 µM) under setting [2]; 16 µg/mL (≈ 35.1 µM) under setting [3]; 16 µg/mL (≈ 35.1 µM) under setting [4]; 8 µg/mL (≈ 17.6 µM) under setting [5].

Consider `C=CCC(CN)=C1CCN(c2c(F)cc3c(=O)c(C(=O)O)cn(C4CC4)c3c2OC)CC1` [Compound 203, 7-[4-(1-Aminomethyl-but-3-enylidene)-piperidin-1-yl]-1-cyclopropyl-6-fluoro-8-methoxy-4-oxo-1,4-dihydro-quinoline-3-carboxylic acid], for which the MIC reads like this: under setting [1], 0.06 µg/mL (≈ 0.136 µM); under setting [2], 0.12 µg/mL (≈ 0.272 µM); under setting [3], 0.06 µg/mL (≈ 0.136 µM); under setting [4], 1 µg/mL (≈ 2.26 µM); under setting [5], 0.5 µg/mL (≈ 1.13 µM).

For the molecule `COc1c(N2CCC(=C(Br)CN)CC2)c(F)cc2c(=O)c(C(=O)O)cn(C3CC3)c12` [Compound 204, 7-[4-(2-Amino-1-bromo-ethylidene)-piperidin-1-yl]-1-cyclopropyl-6-fluoro-8-methoxy-4-oxo-1,4-dihydro-quinoline-3-carboxylic acid], the MIC runs as follows: under setting [1], 0.25 µg/mL (≈ 0.52 µM); under setting [2], 0.12 µg/mL (≈ 0.25 µM); under setting [3], 0.5 µg/mL (≈ 1.04 µM); under setting [4], 0.5 µg/mL (≈ 1.04 µM); under setting [5], 0.5 µg/mL (≈ 1.04 µM).

In the case of `NCC(Cl)=C1CN(c2c(F)cc3c(=O)c(C(=O)O)cn(C4CC4)c3c2OC(F)F)C1` [Compound 205, 7-[3-(2-Amino-1-chloro-ethylidene)-azetidin-1-yl]-1-cyclopropyl-8-difluoromethoxy-6-fluoro-4-oxo-1,4-dihydro-quinoline-3-carboxylic acid], the minimal inhibitory concentration (MIC) reads like this: under setting [1], 0.25 µg/mL (≈ 0.563 µM); under setting [2], 0.5 µg/mL (≈ 1.13 µM); under setting [3], 2 µg/mL (≈ 4.51 µM); under setting [4], 8 µg/mL (≈ 18 µM); under setting [5], 4 µg/mL (≈ 9.01 µM).

Consider `CN(CC(Cl)=C1CCN(c2c(F)cc3c(=O)c(C(=O)O)cn(C4CC4)c3c2OC(F)F)CC1)Cc1ccccc1` [Compound 206, 7-{4-[2-(Benzyl-methyl-amino)-1-chloro-ethylidene]-piperidin-1-yl}-1-cyclopropyl-8-difluoromethoxy-6-fluoro-4-oxo-1,4-dihydro-quinoline-3-carboxylic acid], for which the MIC is, setting by setting: under setting [1], 1 µg/mL (≈ 1.74 µM); under setting [2], 4 µg/mL (≈ 6.94 µM); under setting [4], 4 µg/mL (≈ 6.94 µM); under setting [5], 4 µg/mL (≈ 6.94 µM).

Turning to `CN(CC(F)=C1CCN(c2c(F)cc3c(=O)c(C(=O)O)cn(C4CC4)c3c2OC(F)F)CC1)Cc1ccccc1` [Compound 207, 7-{4-[2-(Benzyl-methyl-amino)-1-fluoro-ethylidene]-piperidin-1-yl}-1-cyclopropyl-8-difluoromethoxy-6-fluoro-4-oxo-1,4-dihydro-quinoline-3-carboxylic acid], the minimum inhibitory concentration (MIC) is 1 µg/mL (≈ 1.79 µM) under setting [1]; 4 µg/mL (≈ 7.15 µM) under setting [2]; 8 µg/mL (≈ 14.3 µM) under setting [3]; 8 µg/mL (≈ 14.3 µM) under setting [4]; 2 µg/mL (≈ 3.57 µM) under setting [5].

As for `NCC(F)=C1CCN(c2cc3c(cc2F)c(=O)c(C(=O)O)cn3C2CC2)CC1` [Compound 208, 7-[4-(2-Amino-1-fluoro-ethylidene)-piperidin-1-yl]-1-cyclopropyl-6-fluoro-4-oxo-1,4-dihydro-quinoline-3-carboxylic acid], the MIC under setting [6] was 0.06 µg/mL (≈ 0.154 µM); the MIC under setting [7] was 2 µg/mL (≈ 5.14 µM); the MIC under setting [8] came out at 0.25 µg/mL (≈ 0.642 µM); it took 0.25 µg/mL (≈ 0.642 µM) to inhibit growth under setting [3] (MIC); the MIC under setting [5] was 0.25 µg/mL (≈ 0.642 µM).

Turning to `COc1c(N2CC(=C(Cl)CN)C2)ccc2c(=O)c(C(=O)O)cn(C3CC3)c12` [Compound 209, 7-[3-(2-Amino-1-chloro-ethylidene)-azetidin-1-yl]-1-cyclopropyl-8-methoxy-4-oxo-1,4-dihydro-quinoline-3-carboxylic acid], the MIC is, setting by setting: under setting [1], 0.12 µg/mL (≈ 0.308 µM); under setting [2], 2 µg/mL (≈ 5.13 µM); under setting [4], 8 µg/mL (≈ 20.5 µM); under setting [5], 16 µg/mL (≈ 41 µM).

For the molecule `CC1COc2c(N3CCC(=CCN)C(O)C3)c(F)cc3c(=O)c(C(=O)O)cn1c23` (stereo not drawn) [Compound 210, 9-[4-(2-Amino-ethylidene)-3-hydroxy-piperidin-1-yl]-8-fluoro-3-methyl-6-oxo-2,3-dihydro-6H-1-oxa-3a-aza-phenalene-5-carboxylic acid], the minimum inhibitory concentration (MIC) under setting [1] came to 8 µg/mL (≈ 19.8 µM), the MIC under setting [2] is greater than 16 µg/mL, the MIC under setting [3] was found to be 16 µg/mL (≈ 39.7 µM) and the MIC under setting [4] came to 16 µg/mL (≈ 39.7 µM).

Take `CC(CO)=C1CCN(c2c(F)cc3c(=O)c(C(=O)O)cn4c3c2OCC4C)CC1` (stereo not drawn) [Compound 211, 8-Fluoro-9-[4-(2-hydroxy-1-methyl-ethylidene)-piperidin-1-yl]-3-methyl-6-oxo-2,3-dihydro-6H-1-oxa-3a-aza-phenalene-5-carboxylic acid]: the MIC under setting [1] was 0.03 µg/mL (≈ 0.0745 µM), the MIC under setting [2] was determined as 0.5 µg/mL (≈ 1.24 µM), the minimal inhibitory concentration (MIC) under setting [3] was found to be 4 µg/mL (≈ 9.94 µM) and 4 µg/mL (≈ 9.94 µM) was the least that counted as inhibitory under setting [4] (MIC).

For the molecule `COc1c(N2CCC(=CCN)CC2)c(F)cc2c(=O)c(C(=O)O)cn(C3CC3)c12` [Compound 212, 7-[4-(2-Amino-ethylidene)-piperidin-1-yl]-1-cyclopropyl-6-fluoro-8-methoxy-4-oxo-1,4-dihydro-quinoline-3-carboxylic acid], the MIC by setting is: under setting [1], 0.06 µg/mL (≈ 0.149 µM); under setting [2], 0.12 µg/mL (≈ 0.299 µM); under setting [3], 1 µg/mL (≈ 2.49 µM); under setting [4], 2 µg/mL (≈ 4.98 µM); under setting [5], 2 µg/mL (≈ 4.98 µM).

Take `CNCC(F)=C1CCN(c2c(F)cc3c(=O)c(C(=O)O)cn(C4CC4)c3c2OC)CC1` [Compound 213, 1-Cyclopropyl-6-fluoro-7-[4-(1-fluoro-2-methylamino-ethylidene)-piperidin-1-yl]-8-methoxy-4-oxo-1,4-dihydro-quinoline-3-carboxylic acid]: the MIC was found to be 0.12 µg/mL (≈ 0.277 µM) under setting [1], 0.5 µg/mL (≈ 1.15 µM) under setting [2], 2 µg/mL (≈ 4.61 µM) under setting [4] and 2 µg/mL (≈ 4.61 µM) under setting [5].

For `CCNCC(F)=C1CCN(c2c(F)cc3c(=O)c(C(=O)O)cn(C4CC4)c3c2OC)CC1` [Compound 214, 1-Cyclopropyl-7-[4-(2-ethylamino-1-fluoro-ethylidene)-piperidin-1-yl]-6-fluoro-8-methoxy-4-oxo-1,4-dihydro-quinoline-3-carboxylic acid], the MIC by setting is: under setting [1], 0.06 µg/mL (≈ 0.134 µM); under setting [2], 0.25 µg/mL (≈ 0.559 µM); under setting [4], 1 µg/mL (≈ 2.23 µM); under setting [5], 1 µg/mL (≈ 2.23 µM).

Take `CNCC(Cl)=C1CCN(c2nc3c(cc2F)c(=O)c(C(=O)O)cn3C2CC2)CC1` [Compound 215, 7-[4-(1-Chloro-2-methylamino-ethylidene)-piperidin-1-yl]-1-cyclopropyl-6-fluoro-4-oxo-1,4-dihydro-[1,8]naphthyridine-3-carboxylic acid]: the minimum inhibitory concentration (MIC) under setting [6] came to 0.25 µg/mL (≈ 0.594 µM); the minimal inhibitory concentration (MIC) under setting [9] is 2 µg/mL (≈ 4.75 µM); the MIC under setting [2] turned out to be 0.25 µg/mL (≈ 0.594 µM); it took 2 µg/mL (≈ 4.75 µM) to inhibit growth under setting [4] (MIC); it took 2 µg/mL (≈ 4.75 µM) to inhibit growth under setting [5] (MIC).

In the case of `CNCC(Cl)=C1CCN(c2nc3c(cc2F)c(=O)c(C(=O)O)cn3C2CC2)CC1` [Compound 216, 7-[4-(1-Chloro-2-methylamino-ethylidene)-piperidin-1-yl]-1-cyclopropyl-6-fluoro-4-oxo-1,4-dihydro-[1,8]naphthyridine-3-carboxylic acid], the MIC reads like this: under setting [6], 0.06 µg/mL (≈ 0.143 µM); under setting [9], 0.12 µg/mL (≈ 0.285 µM); under setting [7], 2 µg/mL (≈ 4.75 µM); under setting [10], 1 µg/mL (≈ 2.38 µM); under setting [8], 0.25 µg/mL (≈ 0.594 µM).

With `CNCC(C)=C1CCN(c2nc3c(cc2F)c(=O)c(C(=O)O)cn3C2CC2)CC1` [Compound 217, 1-Cyclopropyl-6-fluoro-7-[4-(1-methyl-2-methylamino-ethylidene)-piperidin-1-yl]-4-oxo-1,4-dihydro-[1,8]naphthyridine-3-carboxylic acid], the minimum inhibitory concentration (MIC) is, setting by setting: under setting [6], 0.25 µg/mL (≈ 0.624 µM); under setting [7], 2 µg/mL (≈ 4.99 µM); under setting [10], 2 µg/mL (≈ 4.99 µM); under setting [8], 0.25 µg/mL (≈ 0.624 µM).

As for `CNCC(C)=C1CCN(c2cc3c(cc2F)c(=O)c(C(=O)O)cn3C2CC2)CC1` [Compound 218, 1-Cyclopropyl-6-fluoro-7-[4-(1-methyl-2-methylamino-ethylidene)-piperidin-1-yl]-4-oxo-1,4-dihydro-quinoline-3-carboxylic acid], the minimal inhibitory concentration (MIC) under setting [6] was 0.12 µg/mL (≈ 0.3 µM), the MIC under setting [7] stood at 2 µg/mL (≈ 5.01 µM), the MIC under setting [2] was 0.25 µg/mL (≈ 0.626 µM) and the lowest concentration to inhibit growth under setting [5] (MIC) was 2 µg/mL (≈ 5.01 µM).

As to `CNCC(C)=C1CCN(c2cc3c(cc2F)c(=O)c(C(=O)O)cn3C2CC2)CC1` [Compound 219, 1-Cyclopropyl-6-fluoro-7-[4-(1-methyl-2-methylamino-ethylidene)-piperidin-1-yl]-4-oxo-1,4-dihydro-quinoline-3-carboxylic acid], the MIC is, setting by setting: under setting [6], 0.5 µg/mL (≈ 1.25 µM); under setting [7], 8 µg/mL (≈ 20 µM); under setting [10], 4 µg/mL (≈ 10 µM); under setting [8], 0.5 µg/mL (≈ 1.25 µM); under setting [3], 8 µg/mL (≈ 20 µM).

For the molecule `CNCC(C)=C1CCN(c2c(F)cc3c(=O)c(C(=O)O)cn(C4CC4)c3c2OC(F)F)CC1` [Compound 220, 1-Cyclopropyl-8-difluoromethoxy-6-fluoro-7-[4-(1-methyl-2-methylamino-ethylidene)-piperidin-1-yl]-4-oxo-1,4-dihydro-quinoline-3-carboxylic acid], the MIC reads like this: under setting [6], 0.12 µg/mL (≈ 0.258 µM); under setting [7], 4 µg/mL (≈ 8.59 µM); under setting [10], 0.5 µg/mL (≈ 1.07 µM); under setting [8], 0.5 µg/mL (≈ 1.07 µM); under setting [3], 2 µg/mL (≈ 4.3 µM).
